From US7094909B2, “HIV protease inhibitors, compositions containing the same, their pharmaceutical uses and materials for their synthesis” (priority 2001, dated 2006) come the findings set out here.

pEC50: −log10 of the molar value. Like-named read-outs stand apart in the source and are kept apart here.

Assay [1] concerns the target T1, HIV-1 protease (Q7S mutant form) (Human immunodeficiency virus type 1 group M subtype B, UniProt P04585, Q495S).
T1 construct: made in house
In words: HIV-1 Protease RET assay. The assay is classed as biochemical. The settings on record: Ave. Ki (nM), RET assay, Q7S enzyme, Morrison tight binding fit. A digest of the protocol: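 Q7S HIV-1 protease, refolded from urea, 2 nM active dimer with 5 μM EDANS/DABCYL peptide cleaved at Tyr-Pro; fluorescence 340/490 nm. 12 min at 37 °C in 0.1M sodium acetate pH 4.8, 1M NaCl, 10% DMSO. Ki from Morrison tight-binding fit.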

The subject of assay [2] is HIV-1 (HIV-1 RF, HIV-1 NL4-3) in CEM-SS / MT-2 cells. In words: Cytopathic effect (CPE) inhibition assay (XTT/MTT dye reduction). The following applies: for pEC50: Human immunodeficiency virus 1, NL43, read-out: Ave CPE EC50. The assay is classed as cell-based. A digest of the protocol: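 CEM-SS or MT-2 cells were infected with HIV-1 RF or NL4-3 (moi 0.025–0.819) and plated at 2×10^4 cells/well with half-log compound dilutions for 6 days. Viability was read by XTT formazan at 450 nm after 4 h. EC50 restores formazan to 50% of uninfected untreated cells, CC50 halves it in uninfected cells, and TI = CC50/EC50.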
On the technique in general: Damage to the host cells serves as the signal in cytopathic effect assays.

For another assay, the system named is 461, 84V, 90M virus. In words: Phenotypic susceptibility assay at Virologic, Inc. The assay is classed as cell-based, HIV-1. The settings on record: Human immunodeficiency virus 1, read-out: EC50 or IC50 (mM), values with asterisk (IC50). The procedure:
Compounds were tested in phenotypic susceptibility assays at Virologic, Inc., (See Petropoulos C. J., Parkin N. T., Limoli K. L., Lie Y. S., Wrin T., Huang W., Tian H., Smith D., Winslow G. A., Capon D J, Whitcomb J M. 2000, “A novel phenotypic drug susceptibility assay for human immunodeficiency virus type 1,” Antimicrob Agents Chemother 44(4):920–928) or using the assay described here. MT-2 cells were infected with either HIV-1 NL4-3 or HIV-1 NL4-3([…]) and incubated in the presence of serial 0.5 log dilutions of test compounds. Three days later, culture supernatants were collected and virus production, as determined by p24 ELISA, was assayed. Percent inhibition was calculated as p24 concentration in compound-treated samples as compared to infected, compound-free controls. Inhibition of viral replication is determined by measuring reduction in HIV p24 present in the culture supernatant, using a Beckman-Coulter p24HIV-1 Ag EIA kit and following the supplied protocol. Absorbance is read on a MRX microplate reader (Dynex Technologies). The EC50 was calculated as the concentration of compound that effected a decrease in the p24 production by infected, compound-treated cells to 50% of that produced by infected, compound-free cells.

For assay [3], the system named is HIV-1 NL4-3 or HIV-1 NL4-3(I84V/L90M). Put plainly: Susceptibility assay, p24 ELISA in infected MT-2 cells. The assay is classed as cell-based. The following applies: Human immunodeficiency virus 1, NL43, MT2, read-out: EC50 or IC50 (mM), values without asterisk (EC50). A digest of the protocol: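 MT-2 cells infected with HIV-1 NL4-3 or the I84V/L90M mutant were incubated with 0.5 log serial compound dilutions for three days. Supernatant p24 was quantified by ELISA. EC50 is the concentration reducing p24 to 50% of infected, compound-free controls.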
(An ELISA detects its analyte on a solid surface through an enzyme-linked reagent.)

The compound `Cc1c(O)cccc1C(=O)N[C@@H](Cc1ccccc1)[C@H](O)C(=O)N1CSC(C)(C)[C@H]1C(=O)NCC1CC1` [Example A20, (R)-3-((2S,3S)-2-Hydroxy-3-{[1-(3-hydroxy-2-methyl-phenyl)-methanoyl]-amino}-4-phenyl-butanoyl)-5,5-dimethyl-thiazolidine-4-carboxylic acid cyclopropylmethyl-amide] registered a Ki in assay [1] of 0.16 nM. Moreover, the pEC50 in assay [2] was 7.46. For the same compound, the IC50 in the assay with 461, 84V, 90M virus came to 0.219 µM.

With `Cc1c(O)cccc1C(=O)N[C@@H](Cc1ccccc1)[C@H](O)C(=O)N1CSC(C)(C)[C@H]1C(=O)NCc1cccs1` [Example A23, (R)-3-((2S,3S)-2-Hydroxy-3-{[1-(3-hydroxy-2-methyl-phenyl)-methanoyl]-amino}-4-phenyl-butanoyl)-5,5-dimethyl-thiazolidine-4-carboxylic acid (thiophen-2-ylmethyl)-amide], the affinity in assay [1], expressed as Ki, was 2.6 nM. Besides, in assay [2], the pEC50 was 7.77. Besides, the IC50 in the assay with 461, 84V, 90M virus amounted to 0.048 µM.

For `Cc1ccccc1CNC(=O)[C@H]1N(C(=O)[C@@H](O)[C@H](Cc2ccccc2)NC(=O)O[C@H]2CCOC2)CSC1(C)C` [Example B1, {1-Benzyl-3-[5,5-dimethyl-4-(2-methyl-benzylcarbamoyl)-thiazoldin-3-yl]-2-hydroxy-3-oxo-propyl}-carbamic acid tetrahydropfuran-3-yl-ester], the Ki in assay [1] was 0.27 nM. Moreover, the pEC50 in assay [2] was 7.31. The IC50 in the assay with 461, 84V, 90M virus was 0.236 µM.

For the compound `Cc1c(O)cccc1C(=O)N[C@@H](Cc1ccccc1)[C@H](O)C(=O)N1CSC(C)(C)[C@H]1C(=O)NCC1CCCCC1` [Example A13, 3-[2-Hydroxy-3-(3-hydroxy-2-methyl-benzoylamino)-4-phenyl-butyryl]-5,5-dimethyl-thiiazolidine-4-carboxylic acid cyclohexylmethyl-amide], in assay [1], the Ki is 3.4 nM. For the same compound, the pEC50 in assay [2] was 6.31. Further, the IC50 with 461, 84V, 90M virus stood at 0.921 µM.

Regarding `Cc1c(O)cccc1C(=O)N[C@@H](Cc1ccccc1)[C@H](O)C(=O)N1CSC(C)(C)[C@H]1C(=O)NCc1ccc2c(c1)OCO2` [Example A14, 3-((2S,3S)-2-Hydroxy-3-{[1-(3-hydroxy-2-methyl-phenyl)-methanoyl]-amino}-4-phenyl-butanoyl)-5,5-dimethyl-thiazolidine-4-carboxylic acid (benzo[1,3]dioxol-5-ylmethyl)-amide], the affinity in assay [1], expressed as Ki, was 0.32 nM. The EC50 in assay [2] (Human immunodeficiency virus 1, NL43, read-out: Ave CPE EC50 (mM)) stood at 0.061 µM. The half-maximal inhibitory concentration (IC50) in the assay on 461, 84V, 90M virus was found to be 0.226 µM.

In assay [1], `Cc1cnccc1CNC(=O)[C@H]1N(C(=O)[C@@H](O)[C@H](Cc2ccccc2)NC(=O)c2cccc(O)c2C)CSC1(C)C` [Example A10, 3-[2-Hydroxy-3-(3-hydroxy-2-methyl-benzoylamino)-4-phenyl-butyryl]-5,5-dimethyl-thiazolidine-4-carboxylic acid (3-methyl-pyridin4-ylmethyl)-amide] registered a Ki below 0.1 nM. Besides, the pEC50 in assay [2] was 6.98. Also, the IC50 in the assay with 461, 84V, 90M virus is 0.118 µM.

Regarding `CCCC(=O)N[C@@H](Cc1ccccc1)[C@H](O)C(=O)N1CSC(C)(C)[C@H]1C(=O)NCc1ccccc1C` [Example B20, (R)-3-((2S,3S)-3-Butyrylamino-2-hydroxy-4-phenyl-butyryl)-5,5-dimethyl-thiazolidine-4-carboxylic acid 2-methyl-benzylamide], affinity in assay [1] was put at a Ki of 2.1 nM. Further, the pEC50 in assay [2] was 5.81. In addition, the IC50 in the assay on 461, 84V, 90M virus is 2.08 µM.

`Cc1c(O)cccc1C(=O)N[C@@H](Cc1ccccc1)[C@H](O)C(=O)N1CSC(C)(C)[C@H]1C(=O)NCc1ccco1` [Example A15, (R)-3-((2S,3S)-2-Hydroxy-3-{[1-(3-hydroxy-2-methyl-phenyl)-methanoyl]-amino}-4-phenyl-butanoyl)-5,5-dimethyl-thiazolidine-4-carboxylic acid (furan-2-ylmethyl)-amide] came in with a Ki in assay [1] below 0.1 nM. In assay [2], the pEC50 is 7.26. For the same compound, the IC50 in the assay on 461, 84V, 90M virus came to 0.057 µM.

Take `Cc1c(O)cccc1C(=O)N[C@@H](Cc1ccccc1)[C@H](O)C(=O)N1CSC(C)(C)[C@H]1C(=O)NC1CCCCC1` [Example A21, (R)-3-((2S,3S)-2-Hydroxy-3-{[1-(3-hydroxy-2-methyl-phenyl)-methanoyl]-amino)-4-phenyl-butanoyl)-5,5-dimethyl-thiazolidine-4-carboxylic acid cyclohexylamide]: the inhibition constant (Ki) in assay [1] is below 0.1 nM. The pEC50 in assay [2] is 7.31. Moreover, the IC50 in the assay on 461, 84V, 90M virus worked out at 0.655 µM.

Compound `C=CCNC(=O)[C@H]1N(C(=O)[C@@H](O)[C@H](Cc2ccccc2)NC(=O)c2cccc3c2CCN3)CSC1(C)C` [Example B21, 2,3-Dihydro-1H-indole-4-carboxylic acid [(1S,2S)-3-((R)-4-allylcarbamoyl-5,5-dimethyl-thiazolidin-3-yl)-1-benzyl-2-hydroxy-3-oxo-propyl]-amide] had a Ki in assay [1] of 0.91 nM. In assay [2], the pEC50 was 6.96. For the same compound, in the assay on 461, 84V, 90M virus, the IC50 is 0.547 µM.

As to `Cc1c(O)cccc1C(=O)N[C@@H](Cc1ccccc1)[C@H](O)C(=O)N1CSC(C)(C)[C@H]1C(=O)NCc1ccsc1` [Example A40, (R)-3-((2S,3S)-2-Hydroxy-3-{[1-(3-hydroxy-2-methyl-phenyl)-methanoyl]-amino}-4-phenyl-butanoyl)-5,5-dimethyl-thiazolidine-4-carboxylic acid (thiophen-3-ylmethyl)-amide], in assay [1], the Ki was below 0.1 nM. Moreover, in assay [2], the pEC50 is 7.40. Also, in assay [3], the EC50 was found to be 0.109 µM.

Take `Cc1c(O)cccc1C(=O)N[C@@H](Cc1ccccc1)[C@H](O)C(=O)N1COC(C)(C)[C@H]1C(=O)N[C@H]1CCc2ccccc21` [Example C27, (S)-3-((2S,3S)-2-Hydroxy-3-{[1-(3-hydroxy-2-methyl-phenyl)-methanoyl]-amino}-4-phenyl-butanoyl)-5,5-dimethyl-oxazolidine-4-carboxylic acid (S)-indan-1-ylamide]: the Ki in assay [1] is 0.13 nM. Moreover, the pEC50 in assay [2] is 6.94. The EC50 in assay [3] was found to be 0.189 µM.

Consider `CCCNC(=O)[C@H]1N(C(=O)[C@@H](O)[C@H](Cc2ccccc2)NC(=O)c2cccc(O)c2C)CSC12CCC2` [Example C38, (R)-7-((2S,3S)-2-Hydroxy-3-{[1-(3-hydroxy-2-methyl-phenyl)-methanoyl]-amino}-4-phenyl-butanoyl)-5-thia-7-aza-spiro[3.4]octane-8-carboxylic acid propylamide], for which, in assay [1], the Ki was below 0.1 nM. Besides, the pEC50 in assay [2] was 7.38. Further, the EC50 in assay [3] is 1.31 µM.

For `Cc1c(O)cccc1C(=O)N[C@@H](Cc1ccccc1)[C@H](O)C(=O)N1CC(F)(F)C(C)(C)[C@H]1C(=O)NCc1cccs1` [Example C22, (S)-4,4-Difluoro-1-[(2S,3S)-2-hydroxy-3-(3-hydroxy-2-methyl-benzoylamino)-4-phenyl-butyryl]-3,3-dimethyl-pyrrolidine-2-carboxylic acid (thiophen-2-ylmethyl)-amide], the Ki in assay [1] was below 0.1 nM. The pEC50 in assay [2] is 7.82. Further, the EC50 in assay [3] was determined as 0.062 µM.

In assay [1], `Cc1c(F)cccc1CNC(=O)[C@@H]1CC(F)(F)CN1C(=O)[C@@H](O)[C@H](Cc1ccccc1)NC(=O)c1cccc(O)c1C` [Example C5, (S)-4,4-Difluoro-1-((2S,3S)-2-hydroxy-3-{[1-(3-hydroxy-2-methyl-phenyl)-methanoyl]-amino}-4phenyl-butanoyl)-pyrrolidine-2-carboxylic acid 3-fluoro-2-methyl-benzylamide] registered a Ki of 0.6 nM. Moreover, the pEC50 in assay [2] is 6.17. The EC50 in assay [3] came to 1.61 µM.

As for `Cc1ccccc1CNC(=O)[C@H]1N(C(=O)[C@@H](O)[C@H](Cc2ccccc2)NC(=O)CC(F)(F)F)CSC1(C)C` [Example B19, (R)-3-[(2S,3S)-2-Hydroxy-4-phenyl-3-(3,3,3-trifluoropropionylamino)-butyryl]-5,5-dimethyl-thiazolidine-4-carboxylic acid 2-methyl-benzylamide], in assay [1], the Ki worked out at 1.4 nM. In assay [2], the pEC50 was 5.80. Besides, the EC50 in assay [3] was found to be 1.3 µM.

The Ki is a dissociation constant, usually derived from enzyme kinetics or from competition with a known ligand. One may read the pEC50 as the negative decadic logarithm of the EC50, by convention in mol/L. For orientation: IC50 means the concentration needed to halve the response being measured. Usually EC50 stands for the concentration that produces a half-maximal response.
